{"source": "patent US20090233906A1", "about": "“IMIDAZOAZEPINONE COMPOUNDS” (priority 2006, published 2009)", "data": [{"system": "human T-bet", "experiment": "HEKT-bet-luc assay (normalized)", "format": "cell-based", "settings": "Homo sapiens, HEK293, 24 h, normalized HEKT-bet-luc IC50; engineered HEK cells, T-box responsive luciferase reporter, compound 24 hours; normalized to reference ER-819544; read-out: IC50", "description": "(§1) HEKT-bet-luc assay: This assay measures a T-bet dependent reporter (luciferase) activity in engineered HEK cells that express a human T-bet and a T-box responsive element driving luciferase reporter. HEKT-bet cells were plated at 2×10^4/well in 96-well plate and compound was added into cell culture for 24 hours. Luciferase activity was measured by adding 50 μl of Steady-Glo reagent (Promega) and samples were read in Victor V reader (PerkinElmer). The activity of compound was determined by comparing compound treated samples to non-compound treated vehicle controls. The IC50 values were calculated utilizing a maximum value corresponding to the amount of luciferase in the absence of a test compound and a minimum value corresponding to a test compound value obtained at maximum inhibition.\n(§2) Determination of Normalized HEKT-bet IC50 values: Compounds were assayed in microtiter plates. Each plate included a reference compound which was ER-819544. The un-normalized IC50 value for a particular compound was divided by the IC50 value determined for the reference compound in the same microtiter plate to provide a relative potency value. The relative potency value was then multiplied by the established potency of the reference compound to provide the normalized HEKT-bet IC50 value. […] The IC50 values provided herein were obtained using this normalization method.", "units": {"IC50": "nM"}, "values": [{"compound": "COc1cc2c(c(OC)c1)C(C)(C)C=C1N(C2)C(=O)N(C)C12CCN(Cc1cccc3ccccc13)CC2", "note": "[compound 819637]", "IC50": 734}, {"compound": "COc1cc2c(c(OC)c1)C(C)C=C1N(C2)C(=O)N(C)C12CCN(Cc1cccc3cccnc13)CC2", "note": "(stereo not drawn) [compound 819689]", "IC50": 169}, {"compound": "CCN1C(=O)N2Cc3cc(OC)cc(OC)c3C(C)(C)C=C2C12CCN(Cc1cccc3ncccc13)CC2", "note": "[compound 819602]", "IC50": 150}, {"compound": "CCN1C(=O)N2Cc3cc(OC)cc(OC)c3C(C)C=C2C12CCN(Cc1ccc(C)o1)CC2", "note": "(stereo not drawn) [compound 819770]", "IC50": 267}, {"compound": "COc1cc(CN2CCC3(CC2)C2=CC(C)(C)c4c(cc(OC)cc4OC)CN2C(=O)N3Cc2ccccc2)cc(OC)c1", "note": "[compound 819662]", "IC50": 898}, {"compound": "COCCN1C(=O)N2Cc3cc(OC)cc(OC)c3C(C)(C)C=C2C12CCN(Cc1cccc(OC)c1)CC2", "note": "[compound 819647]", "IC50": 64}, {"compound": "COCCN1C(=O)N2Cc3cc(OC)c(OC)c(OC)c3C(C)(C)C=C2C12CCN(Cc1cc(OC)cc(OC)c1)CC2", "note": "[compound 819701]", "IC50": 21}, {"compound": "COc1cc(CN2CCC3(CC2)C2=CC(C)(C)c4c(cc(OC)cc4OC)CN2C(=O)N3CCO)cc(OC)c1", "note": "[compound 819657]", "IC50": 65}, {"compound": "COCCN1C(=O)N2Cc3cc(F)ccc3C(C)(C)C=C2C12CCN(Cc1cc(OC)cc(OC)c1)CC2", "note": "[compound 819672]", "IC50": 877}, {"compound": "COc1cc2c(c(OC)c1)C(C)C=C1N(C2)C(=O)N(CC=C(C)C)C12CCN(Cc1cc(C)cc(C)c1)CC2", "note": "(stereo not drawn) [compound 819995]", "IC50": 330}, {"compound": "C=C1C=C2N(Cc3cc(OC)cc(OC)c31)C(=O)N(CC)C21CCN(Cc2cc(OC)cc(OC)c2)CC1", "note": "[compound 819703]", "IC50": 247}, {"compound": "CCN1C(=O)N2Cc3cc(OC)cc(OC)c3C(C)C=C2C12CCN(Cc1cc(OC)cc(OC)c1)CC2", "note": "(stereo not drawn) [compound 819582]", "IC50": 10}, {"compound": "COc1cccc(CN2CCC3(CC2)C2=CC(C)(C)c4c(cc(OC)cc4OC)CN2C(=O)N3C)c1", "note": "[compound 819628]", "IC50": 360}, {"compound": "COc1cc2c(c(OC)c1)C(C)C=C1N(C2)C(=O)N(CC2CC2)C12CCN(Cc1cc(C)cc(C)c1)CC2", "note": "(stereo not drawn) [compound 819991]", "IC50": 120}, {"compound": "COc1cc2c(c(OC)c1)C(C)(C)C=C1N(C2)C(=O)N(C)C12CCN(C/C=C/c1ccccc1)CC2", "note": "[compound 819634]", "IC50": 1150}, {"compound": "CCN1C(=O)N2Cc3cc(OC)cc(OC)c3C(C)C=C2C12CCN(Cc1cccc3cccnc13)CC2", "note": "(stereo not drawn) [compound 819594]", "IC50": 60}, {"compound": "COc1cc(CN2CCC3(CC2)C2=CC(C)(C)c4c(cc(OC)cc4OC)CN2C(=O)N3Cc2ccc(-n3cccn3)cc2)cc(OC)c1", "note": "[compound 819663]", "IC50": 637}, {"compound": "COCCN1C(=O)N2Cc3cc(OC)cc(OC)c3C(C)(C)C=C2C12CCN(Cc1ccccc1)CC2", "note": "[compound 819641]", "IC50": 98}, {"compound": "COc1cc(CN2CCC3(CC2)C2=CC(C)(C)c4c(cc(OC)cc4OC)CN2C(=O)N3C)cc(OC)c1", "note": "[compound 819658]", "IC50": 141}, {"compound": "CCc1ccc(CN2CCC3(CC2)C2=CC(C)c4c(cc(OC)cc4OC)CN2C(=O)N3CC)s1", "note": "(stereo not drawn) [compound 819557]", "IC50": 510}, {"compound": "CCN1C(=O)N2Cc3cc(OC)cc(OC)c3C(C)(C)C=C2C12CCN(Cc1cccc3cnccc13)CC2", "note": "[compound 819603]", "IC50": 340}, {"compound": "CCN1C(=O)N2Cc3cc(OC)cc(OC)c3C(C)C=C2C12CCN(Cc1cc(C)cc(C)c1)CC2", "note": "(racemic) [compound 819597]", "IC50": 90}, {"compound": "CCN1C(=O)N2Cc3cc(OC)c(OC)c(OC)c3C(C)C=C2C12CCN(Cc1cccc3cccnc13)CC2", "note": "(stereo not drawn) [compound 819755]", "IC50": 53}]}, {"system": "human T-bet", "experiment": "HEKT-bet-luc assay (normalized)", "format": "cell-based", "settings": "normalized HEKT-bet-luc IC50; engineered HEK cells, T-box responsive luciferase reporter, compound 24 hours; normalized to reference ER-819544; read-out: IC50", "description": "as §1, §2", "units": {"IC50": "nM"}, "values": [{"compound": "COc1cc(CN2CCC3(CC2)C2=CC(C)(C)c4c(cc(OC)cc4OC)CN2C(=O)N3CCO)cc(OC)c1", "note": "[compound 819657]", "IC50": 124}]}]}
